The values below come from patent US7262280B1, “G-protein fusion receptors and constructs encoding same” (NPS Pharmaceuticals, Inc., priority 1998, dated 2007).

Common to all, as to format: cell-based
The target of assay [1] is T1, chimeric CaR/GABABR2 (CaR extracellular and transmembrane domains, and intracellular GABABR2 domain) (Homo sapiens, UniProt O75899+P41180).
T1 construct: chimeric CaR/GABABR2 (CaR extracellular and transmembrane domains, and intracellular GABABR2 domain); GABABR2 intracellular domain (fusion partner replacing the CaR tail); expressed in transfected cells; host or cells: Xenopus oocytes injected with in vitro-transcribed RNA
T1 sequence (P41180+O75899 with tags, fused parts or gaps): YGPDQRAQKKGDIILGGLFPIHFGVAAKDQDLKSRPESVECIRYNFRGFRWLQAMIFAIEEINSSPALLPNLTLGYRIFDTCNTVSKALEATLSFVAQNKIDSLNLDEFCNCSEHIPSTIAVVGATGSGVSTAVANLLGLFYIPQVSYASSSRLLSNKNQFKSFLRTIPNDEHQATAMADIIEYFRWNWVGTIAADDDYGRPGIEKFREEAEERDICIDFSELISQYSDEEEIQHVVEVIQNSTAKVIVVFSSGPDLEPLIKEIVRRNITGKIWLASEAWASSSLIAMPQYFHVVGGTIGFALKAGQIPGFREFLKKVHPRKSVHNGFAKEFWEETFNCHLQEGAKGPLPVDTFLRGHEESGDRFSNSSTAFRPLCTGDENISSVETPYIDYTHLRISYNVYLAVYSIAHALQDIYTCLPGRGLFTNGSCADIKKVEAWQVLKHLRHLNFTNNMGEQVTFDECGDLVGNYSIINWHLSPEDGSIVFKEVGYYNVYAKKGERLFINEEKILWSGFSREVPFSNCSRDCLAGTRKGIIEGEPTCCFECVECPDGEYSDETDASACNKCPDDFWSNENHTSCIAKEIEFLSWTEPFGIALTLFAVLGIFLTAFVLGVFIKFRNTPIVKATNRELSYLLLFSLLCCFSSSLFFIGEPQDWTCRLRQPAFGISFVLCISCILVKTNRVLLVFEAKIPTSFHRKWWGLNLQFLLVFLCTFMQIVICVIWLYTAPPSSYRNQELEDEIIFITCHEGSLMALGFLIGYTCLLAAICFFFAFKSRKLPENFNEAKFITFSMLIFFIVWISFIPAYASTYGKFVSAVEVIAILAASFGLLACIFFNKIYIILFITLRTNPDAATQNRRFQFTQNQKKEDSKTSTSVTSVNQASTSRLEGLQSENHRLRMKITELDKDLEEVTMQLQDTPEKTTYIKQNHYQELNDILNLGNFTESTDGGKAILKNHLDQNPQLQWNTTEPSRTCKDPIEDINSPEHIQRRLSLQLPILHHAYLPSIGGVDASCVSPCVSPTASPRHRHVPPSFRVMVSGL
Nature of the assay: Calcium-activated chloride current in Xenopus oocytes co-injected with chimeric CaR/GABABR2 RNA and Gα15 RNA. Particulars: 100 μM, voltage-clamped, 72-hour incubation, FIG. 8. The procedure: FIG. 8 illustrates the ability of a chimeric CaR/GABABR2 (CaR extracellular and transmembrane domains, and intracellular GABABR2 domain) to transduce a signal. Signal production was measured by detecting an increase in the calcium-activated chloride current. The line in the middle of the increase signifies a wash step.
In vitro-transcribed RNA (7 ng) encoding a chimeric CaR/GABABR2 (CaR extracellular and transmembrane domains, and intracellular GABABR2 domain) was co-injected with in vitro-transcribed RNA (2 ng) encoding Gα15 into Xenopus oocytes. Following a 72-hour incubation, the oocytes were voltage-clamped using standard electrophysiological techniques (B. Hille, Ionic Channels of Exictable Membranes, pp. 30-33, Sinauer Associates, Inc., Sunderland, Ma., 1992). Activation of the chimeric receptor was detected by increases in the calcium-activated chloride current.
In this assay, the Gα15 subunit acts to promote signal transduction through intracellular pathways that mobilize intracellular Ca^++.

In a further assay the target is T2, CaR/mGluR2*Gqi5 (Homo sapiens, UniProt P41180).
T2 construct: expressed in transfected cells; host or cells: Xenopus laevis oocytes injected with fusion receptor cRNA
T2 sequence (P41180 with tags, fused parts or gaps): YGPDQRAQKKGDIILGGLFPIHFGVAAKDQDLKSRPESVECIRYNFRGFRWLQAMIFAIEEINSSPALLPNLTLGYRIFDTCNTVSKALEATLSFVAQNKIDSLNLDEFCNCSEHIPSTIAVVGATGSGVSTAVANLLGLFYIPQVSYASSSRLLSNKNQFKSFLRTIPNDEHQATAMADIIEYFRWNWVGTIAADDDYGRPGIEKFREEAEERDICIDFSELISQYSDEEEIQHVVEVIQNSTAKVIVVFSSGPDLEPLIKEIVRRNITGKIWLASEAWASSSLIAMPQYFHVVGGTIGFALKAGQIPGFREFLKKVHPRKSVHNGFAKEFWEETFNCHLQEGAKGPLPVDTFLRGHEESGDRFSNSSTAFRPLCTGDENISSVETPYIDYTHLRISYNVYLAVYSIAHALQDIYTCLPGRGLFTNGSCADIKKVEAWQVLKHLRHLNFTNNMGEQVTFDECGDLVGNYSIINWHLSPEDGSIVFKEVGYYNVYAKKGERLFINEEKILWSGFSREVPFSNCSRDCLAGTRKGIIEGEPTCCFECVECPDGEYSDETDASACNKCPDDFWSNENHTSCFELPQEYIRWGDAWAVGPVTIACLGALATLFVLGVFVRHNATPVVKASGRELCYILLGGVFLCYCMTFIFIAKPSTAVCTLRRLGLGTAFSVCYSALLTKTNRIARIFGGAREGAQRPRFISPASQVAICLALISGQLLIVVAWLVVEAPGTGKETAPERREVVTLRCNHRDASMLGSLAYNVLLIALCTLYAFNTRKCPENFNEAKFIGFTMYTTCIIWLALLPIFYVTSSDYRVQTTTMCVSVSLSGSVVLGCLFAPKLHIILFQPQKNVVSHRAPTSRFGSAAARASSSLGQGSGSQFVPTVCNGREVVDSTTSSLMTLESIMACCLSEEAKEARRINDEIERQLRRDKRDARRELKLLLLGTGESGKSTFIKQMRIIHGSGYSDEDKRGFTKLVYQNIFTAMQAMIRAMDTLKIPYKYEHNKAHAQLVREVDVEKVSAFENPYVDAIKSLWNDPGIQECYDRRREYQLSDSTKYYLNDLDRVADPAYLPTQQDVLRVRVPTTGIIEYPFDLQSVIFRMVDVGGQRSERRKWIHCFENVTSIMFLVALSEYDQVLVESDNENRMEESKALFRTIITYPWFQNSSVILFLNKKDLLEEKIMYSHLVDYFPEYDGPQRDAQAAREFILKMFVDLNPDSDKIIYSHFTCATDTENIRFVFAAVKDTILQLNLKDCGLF
Nature of the assay: Calcium-activated chloride current in Xenopus oocytes injected with G-protein fusion receptor cRNA. Particulars: 100 μM, Xenopus laevis oocytes, holding −60 mV, FIG. 15. The method, then:
(§1) The different G-protein fusion receptors used in this example were as follows: mGluR2//CaR*Gqi5 (SEQ. ID. NO. 37), CaR/mGluR2*Gqi5 (SEQ. ID. NO. 33), and mGluR8//CaR*Gqi5 SEQ. ID. NO. 41.
(§2) Oocytes suitable for injection were obtained from adult female Xenopus laevis toads using procedures described in C. J. Marcus-Sekura and M. J. M. Hitchcock, Methods in Enzymology, Vol. 152 (1987).
(§3) Receptor fusion cRNAs were dissolved in water and 50 nl (12.5 ng/oocyte) were injected into individual oocytes. Following injection, oocytes were incubated at 16° C. in MBS containing 1 mM CaCl2 for two to seven days prior to electrophysiological recording.
(§4) Test substances were applied by superfusion at a flow rate of about 5 ml/minute. Receptor fusion activation was determined by measuring the increase in calcium-activated chloride current (ICl). Increases in ICl were quantified by measuring the peak inward current stimulated by activating agent, relative to the holding current at −60 mV. […] Application of 100 μM Gd^3+ activated the CaR/mGluR2*Gqi5.

The target in the next assay is T3, mGluR8//CaR*Gαqi5 (Homo sapiens, UniProt O00222).
T3 construct: ID; NO; 41; expressed in transfected cells; host or cells: Xenopus laevis oocytes injected with fusion receptor cRNA
T3 sequence (O00222 with tags, fused parts or gaps): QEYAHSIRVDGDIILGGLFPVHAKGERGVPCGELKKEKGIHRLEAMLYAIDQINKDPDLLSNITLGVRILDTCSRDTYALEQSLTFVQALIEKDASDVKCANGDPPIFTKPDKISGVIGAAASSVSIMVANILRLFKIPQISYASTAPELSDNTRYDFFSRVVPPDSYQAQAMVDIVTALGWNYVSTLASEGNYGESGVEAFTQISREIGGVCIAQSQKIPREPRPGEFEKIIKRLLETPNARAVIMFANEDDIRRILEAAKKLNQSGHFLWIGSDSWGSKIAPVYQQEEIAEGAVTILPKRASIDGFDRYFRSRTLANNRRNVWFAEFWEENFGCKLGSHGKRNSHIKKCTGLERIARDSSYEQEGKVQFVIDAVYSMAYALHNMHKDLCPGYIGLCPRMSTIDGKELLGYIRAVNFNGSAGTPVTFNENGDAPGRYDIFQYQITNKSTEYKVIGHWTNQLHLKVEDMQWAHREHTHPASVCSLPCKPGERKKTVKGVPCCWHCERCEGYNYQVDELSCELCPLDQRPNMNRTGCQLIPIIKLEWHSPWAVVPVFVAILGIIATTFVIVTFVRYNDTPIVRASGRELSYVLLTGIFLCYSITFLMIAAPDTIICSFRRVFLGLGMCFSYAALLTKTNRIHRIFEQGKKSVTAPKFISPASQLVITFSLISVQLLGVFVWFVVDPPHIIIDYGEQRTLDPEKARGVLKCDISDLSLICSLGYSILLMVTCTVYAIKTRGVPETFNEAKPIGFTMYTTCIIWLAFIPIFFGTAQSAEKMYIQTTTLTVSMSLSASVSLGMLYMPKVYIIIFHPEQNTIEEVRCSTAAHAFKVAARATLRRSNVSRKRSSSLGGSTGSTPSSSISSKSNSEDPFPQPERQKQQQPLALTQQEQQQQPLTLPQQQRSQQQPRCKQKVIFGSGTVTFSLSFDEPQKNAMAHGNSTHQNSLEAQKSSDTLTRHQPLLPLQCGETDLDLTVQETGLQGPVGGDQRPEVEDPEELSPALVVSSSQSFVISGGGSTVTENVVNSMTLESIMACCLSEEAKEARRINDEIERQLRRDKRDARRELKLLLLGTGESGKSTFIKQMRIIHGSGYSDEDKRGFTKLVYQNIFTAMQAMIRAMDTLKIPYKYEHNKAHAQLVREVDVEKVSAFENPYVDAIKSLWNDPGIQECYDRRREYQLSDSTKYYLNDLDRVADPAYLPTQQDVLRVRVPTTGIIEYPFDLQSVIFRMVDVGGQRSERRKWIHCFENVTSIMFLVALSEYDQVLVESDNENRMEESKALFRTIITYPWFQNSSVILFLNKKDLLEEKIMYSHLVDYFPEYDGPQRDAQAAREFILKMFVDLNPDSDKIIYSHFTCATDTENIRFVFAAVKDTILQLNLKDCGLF
The assay is described as above. Particulars: 100 μM, Xenopus laevis oocytes, holding −60 mV, FIG. 15. The method, then: as §1, §2, §3, §4

The target in a further assay is mGluR2//CaR*Gαqi5 (Homo sapiens, UniProt Q14416, L8P). The assay is described as above. Particulars: 100 μM, Xenopus laevis oocytes, holding −60 mV, FIG. 15.
mGluR2//CaR*Gαqi5, sequence (Q14416 with tags, fused parts or gaps L8P): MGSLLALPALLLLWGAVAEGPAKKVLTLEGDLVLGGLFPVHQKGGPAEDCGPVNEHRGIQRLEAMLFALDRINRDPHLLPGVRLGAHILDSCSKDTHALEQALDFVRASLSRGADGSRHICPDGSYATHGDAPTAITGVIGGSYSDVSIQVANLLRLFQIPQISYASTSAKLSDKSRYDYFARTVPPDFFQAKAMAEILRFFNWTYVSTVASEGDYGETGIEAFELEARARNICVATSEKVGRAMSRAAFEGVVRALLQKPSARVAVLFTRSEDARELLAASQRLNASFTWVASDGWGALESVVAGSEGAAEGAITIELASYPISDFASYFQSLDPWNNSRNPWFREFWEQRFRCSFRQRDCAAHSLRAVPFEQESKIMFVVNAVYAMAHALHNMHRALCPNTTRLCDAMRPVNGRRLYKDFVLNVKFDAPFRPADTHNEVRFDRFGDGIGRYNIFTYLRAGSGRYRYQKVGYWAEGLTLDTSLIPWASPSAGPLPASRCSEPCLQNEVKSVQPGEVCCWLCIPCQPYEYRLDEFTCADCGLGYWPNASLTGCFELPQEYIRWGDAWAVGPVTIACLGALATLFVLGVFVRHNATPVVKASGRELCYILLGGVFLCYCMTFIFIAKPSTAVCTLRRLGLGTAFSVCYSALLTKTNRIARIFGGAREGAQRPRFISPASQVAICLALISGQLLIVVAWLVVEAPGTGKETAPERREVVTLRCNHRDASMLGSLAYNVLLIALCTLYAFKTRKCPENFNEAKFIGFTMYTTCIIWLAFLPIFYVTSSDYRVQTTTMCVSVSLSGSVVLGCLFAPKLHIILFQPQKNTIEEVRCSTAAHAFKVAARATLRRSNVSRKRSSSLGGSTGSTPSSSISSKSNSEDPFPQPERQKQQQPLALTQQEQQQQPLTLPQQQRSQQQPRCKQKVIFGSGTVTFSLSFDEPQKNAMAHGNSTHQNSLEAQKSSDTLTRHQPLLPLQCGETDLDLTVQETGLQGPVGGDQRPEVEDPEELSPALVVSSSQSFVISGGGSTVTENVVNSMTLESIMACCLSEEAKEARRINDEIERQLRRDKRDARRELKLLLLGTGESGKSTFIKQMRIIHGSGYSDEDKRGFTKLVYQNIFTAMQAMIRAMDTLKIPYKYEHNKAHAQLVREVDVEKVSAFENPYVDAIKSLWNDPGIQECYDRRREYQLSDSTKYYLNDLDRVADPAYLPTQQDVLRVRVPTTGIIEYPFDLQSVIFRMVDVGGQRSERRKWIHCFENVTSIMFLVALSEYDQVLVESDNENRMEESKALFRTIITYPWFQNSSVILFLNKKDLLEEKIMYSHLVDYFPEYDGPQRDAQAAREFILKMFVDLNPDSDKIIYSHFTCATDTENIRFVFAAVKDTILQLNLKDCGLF

With `[Gd+3]` [Gd^3+], the “activation of the chimeric receptor detected by increases in the calcium-activated chloride current” value in assay [1] is reported as “reversible, oscillatory increases in the calcium-activated chloride current”. Besides, the “receptor fusion activation, increase in calcium-activated chloride current (ICl)” value at CaR/mGluR2*Gqi5 was “activated”.
On to `N[C@@H](CCC(=O)O)C(=O)O` [L-glutamate], for which the “receptor fusion activation, increase in calcium-activated chloride current (ICl)” value on mGluR8//CaR*Gαqi5 and at mGluR2//CaR*Gαqi5 was “elicited a response” in each case.
